Laboratory results reported in patent US20230159496A1, “COMPOUNDS AND METHODS FOR MODULATING SPLICING” (REMIX THERAPEUTICS INC., priority 2020, published 2023).
Read-outs that look alike come from different tables or passages of the source.

How the values were obtained:
Type in all cases: cell-based
HTT mRNA = experiment: Splicing assay (RT-qPCR) monitoring HTT canonical junction (CJ) and alternative junction (AJ) mRNA isoforms; settings: A673 or K562 cells, 24 h treatment, top dose 10 uM
Method in brief: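 A673 or K562 cells treated 24 h at 37 °C with an 11-point 3-fold dilution (top 10 uM final, DMSO ≤0.25%). Lysates assayed by one-step RT-qPCR for HTT CJ and AJ isoforms, normalized to GAPDH, GUSB (K562) or PPIA (A673).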

HTT CJ mRNA = experiment: Gene panel canonical junction qPCR assay, HTT; settings: decrease in CJ mRNA levels, gene panel; read-out: HTT IC50
Method in brief: (§1)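 A673 or K562 cells were treated for 24 h at 37 °C with an 11-point 3-fold dilution, top dose 10 uM, DMSO ≤0.25%. Canonical junction mRNA in lysates was quantified by one-step RT-qPCR and normalized to GAPDH, GUSB or PPIA.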

SMN2 CJ mRNA = experiment: Gene panel canonical junction qPCR assay, SMN2; settings: decrease in CJ mRNA levels, gene panel; read-out: SMN2 IC50
Method in brief: as §1

Target C CJ mRNA = experiment: Gene panel canonical junction qPCR assay, Target C; settings: decrease in CJ mRNA levels, gene panel; read-out: Target C IC50
Method in brief: as §1

[1] = decrease in CJ mRNA (50% response), read-out: HTT CJ AC50
[2] = increase in AJ mRNA (50% response), read-out: HTT AJ AC50

Compound | AC50 (HTT mRNA; [1]) [nM] | AC50 (HTT mRNA; [2]) [nM] | IC50 (HTT CJ mRNA) [nM] | IC50 (SMN2 CJ mRNA) [nM] | IC50 (Target C CJ mRNA) [nM]
O=c1c2ccc(-c3cn[nH]c3)cc2ncn1C1CCNCC1 [Compound 284] | > 10000 | > 10000 | > 10000 | 1000 to 10000 | > 10000
Cc1cn2nc(-c3ccc4c(=O)n(C5CCNC5)ncc4c3)cc(C)c2n1 (stereo not shown) [Compound 264, 6-{2,8-dimethylimidazo[1,2-b]pyridazin-6-yl}-2-(pyrrolidin-3-yl)phthalazin-1-one] | 1000 to 10000 | 1000 to 10000 | 1000 to 10000 | 100 to 1000 | > 10000
Cc1cn2nc(-c3ccc4c(c3)CCN(C3CCNC3)C4=O)cc(C)c2n1 (stereo not shown) [Compound 269, 6-{2,8-dimethylimidazo[1,2-b]pyridazin-6-yl}-2-(pyrrolidin-3-yl)-3,4-dihydroisoquinolin-1-one] | > 10000 | > 10000 | > 10000 | 1000 to 10000 | > 10000
O=C1c2ccc(-c3cn[nH]c3)cc2CCN1C1CCNCC1 [Compound 220] | > 10000 | > 10000 | > 10000 | > 10000 | > 10000
Cc1cn2nc(-c3ccc4c(=O)n(C5CCN(C)CC5)cnc4c3)cc(C)c2n1 [Compound 176, 7-(2,8-dimethylimidazo[1,2-b]pyridazin-6-yl)-3-(1-methylpiperidin-4-yl)quinazolin-4(3H)-one] | 1000 to 10000 | 1000 to 10000 | 1000 to 10000 | 100 to 1000 | 1000 to 10000
Cc1cn2nc(-c3ccc4c(c3)CCN([C@@H]3CCN[C@H](C)C3)C4=O)cc(C)c2n1 [Compound 281] | 1000 to 10000 | 1000 to 10000 | 1000 to 10000 | 100 to 1000 | 1000 to 10000
Cc1nc2c(F)cc(-c3ccc4c(=O)n(C5CCN(C)CC5)cnc4c3)cc2o1 [Compound 300] | 100 to 1000 | 1000 to 10000 | 100 to 1000 | < 100 | 1000 to 10000
Cc1cn2nc(-c3cc(F)c4c(=O)n(C5CCN(C)CC5)cnc4c3)cc(C)c2n1 [Compound 242, 7-(2,8-dimethylimidazo[1,2-b]pyridazin-6-yl)-5-fluoro-3-(1-methylpiperidin-4-yl)quinazolin-4(3H)-one] | < 100 | < 100 | < 100 | < 100 | 100 to 1000
Cc1cn2cc(-c3ccc4nc(NC5CCNCC5)[nH]c(=O)c4c3)cc(F)c2n1 [Compound 238] | > 10000 | > 10000 | > 10000 | > 10000 | > 10000
Cc1cn2cc(-c3ccc4c(=O)n(C5CCNCC5)ncc4c3)cc(C)c2n1 [Compound 257] | 100 to 1000 | 100 to 1000 | 100 to 1000 | < 100 | 1000 to 10000
Cc1nc2c(F)cc(-c3ccc4c(=O)n(C5CCNCC5)ncc4c3)cc2o1 [Compound 250] | < 100 | < 100 | < 100 | < 100 | 100 to 1000
Cc1cn2nc(-c3ccc4c(=O)n(C5CCNC(C)(C)C5)ncc4c3)cc(C)c2n1 (stereo not shown) [Compound 279] | 100 to 1000 | 100 to 1000 | 100 to 1000 | < 100 | 100 to 1000
Cc1nc2c(F)cc(-c3ccc4c(c3)CCN(C3CCNCC3)C4=O)cc2s1 [Compound 226] | > 10000 | > 10000 | > 10000 | 100 to 1000 | > 10000
Cc1cn2cc(-c3ccc4c(=O)n(C5CCNCC5)ncc4c3)ncc2n1 [Compound 255] | 1000 to 10000 | 1000 to 10000 | 1000 to 10000 | 100 to 1000 | > 10000
Cc1nc2c(F)cc(-c3ccc4c(=O)n(C5CCNCC5)cnc4c3)cc2o1 [Compound 245] | 100 to 1000 | 100 to 1000 | 100 to 1000 | < 100 | 100 to 1000
Cc1cn2cc(-c3ccc4c(=O)n(C5CCN(C)CC5)cnc4c3)ncc2n1 [Compound 308] | 1000 to 10000 | 1000 to 10000 | 1000 to 10000 | 100 to 1000 | 1000 to 10000
Cc1cn2nc(-c3ccc4c(=O)n(C5CCN(C)CC5)cnc4c3)cc2c(C)n1 [Compound 303] | 1000 to 10000 | 1000 to 10000 | 1000 to 10000 | 100 to 1000 | 1000 to 10000
